From patent US20230085307A1, “PYRIDAZINONE COMPOUND AND HERBICIDE” (NISSAN CHEMICAL CORPORATION, priority 2019, published 2023)

Tests used:
late watergrass = test: Test Example 2: herbicidal activity, application during weed generation under submerged conditions (Table 17, symbol A); assay type: in vivo, late watergrass (Echinochloa oryzicola); conditions: AAH 178 g/ha; application during weed generation, submerged conditions
In short: (§1)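 Wagner pot, alluvial soil, 4 cm flood; mixed sowing of all species; greenhouse 25° C.–30° C. Emulsifiable formulation, water-diluted to predetermined dose, applied to paddy water at 1–2 leaf stage. Effect rated at 3 wk using the earlier test's scoring criteria.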

Japanese bulrush = test: Test Example 2: herbicidal activity, application during weed generation under submerged conditions (Table 17, symbol B); assay type: in vivo, Japanese bulrush (Schoenoplectus juncoides); conditions: AAH 178 g/ha; application during weed generation, submerged conditions
In short: as §1

oval-leafed pondweed = test: Test Example 2: herbicidal activity, application during weed generation under submerged conditions (Table 17, symbol C); assay type: in vivo, oval-leafed pondweed (Monochoria vaginalis); conditions: AAH 178 g/ha; application during weed generation, submerged conditions
In short: as §1

barnyard grass [1] = test: Test Example 3: herbicidal effect by foliage application, Wagner pot (Table 18, symbol H); assay type: in vivo, barnyard grass (Echinochloa crus-galli); conditions: 178 g/ha
In short: (§2)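 Plants were sown in alluvial soil held under 0.1–0.5 cm standing water and grown 14 days in a greenhouse at 25–30 °C. An emulsifiable formulation, water-diluted to the set dose, was then sprayed onto the foliage, and effects were scored three weeks later using previously defined criteria.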

Chinese sprangletop = test: Test Example 3: herbicidal effect by foliage application, Wagner pot (Table 18, symbol D); assay type: in vivo, chinese sprangletop (Leptochloa chinensis); conditions: 178 g/ha
In short: as §2

rice flat sedge = test: Test Example 3: herbicidal effect by foliage application, Wagner pot (Table 18, symbol E); assay type: in vivo, rice flat sedge (Cyperus iria); conditions: 178 g/ha
In short: as §2

southern crabgrass [2] = test: Test Example 4: herbicidal effect by soil treatment (Table 19, symbol F); assay type: in vivo, southern crabgrass (Digitaria ciliaris); conditions: AAH 178 g/ha
In short: (§3)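 Pre-emergence style soil spray: seeds under ~1.5 cm sterilized diluvial soil received a uniform coat of emulsion diluted to the predetermined herbicide amount. Greenhouse 25–30° C; readout at week three on previously defined criteria.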

green foxtail [3] = test: Test Example 4: herbicidal effect by soil treatment (Table 19, symbol G); assay type: in vivo, green foxtail (Setaria viridis); conditions: AAH 178 g/ha
In short: as §3

barnyard grass [4] = test: Test Example 4: herbicidal effect by soil treatment (Table 19, symbol H); assay type: in vivo, barnyard grass (Echinochloa crus-galli); conditions: AAH 178 g/ha
In short: as §3

wild oat [5] = test: Test Example 4: herbicidal effect by soil treatment (Table 19, symbol I); assay type: in vivo, wild oat (Avena fatua); conditions: AAH 178 g/ha
In short: as §3

blackgrass [6] = test: Test Example 4: herbicidal effect by soil treatment (Table 19, symbol J); assay type: in vivo, blackgrass (Alopecurus myosuroides); conditions: AAH 178 g/ha
In short: as §3

Italian ryegrass [7] = test: Test Example 4: herbicidal effect by soil treatment (Table 19, symbol K); assay type: in vivo, Italian ryegrass (Lolium multiflorum); conditions: AAH 178 g/ha
In short: as §3

windgrass [8] = test: Test Example 4: herbicidal effect by soil treatment (Table 19, symbol L); assay type: in vivo, windgrass (Apera spica-venti); conditions: AAH 178 g/ha
In short: as §3

velvetleaf [9] = test: Test Example 4: herbicidal effect by soil treatment (Table 19, symbol M); assay type: in vivo, velvetleaf (Abutilon theophrasti); conditions: AAH 178 g/ha
In short: as §3

redroot pigweed = test: Test Example 4: herbicidal effect by soil treatment (Table 19, symbol N); assay type: in vivo, redroot pigweed (Amaranthus retroflexus); conditions: AAH 178 g/ha
In short: as §3

lambsquarters [10] = test: Test Example 4: herbicidal effect by soil treatment (Table 19, symbol O); assay type: in vivo, lambsquarters (Chenopodium album); conditions: AAH 178 g/ha
In short: as §3

chickweed = test: Test Example 4: herbicidal effect by soil treatment (Table 19, symbol P); assay type: in vivo, common chickweed (Stellaria media); conditions: AAH 178 g/ha
In short: as §3

false cleavers = test: Test Example 4: herbicidal effect by soil treatment (Table 19, symbol Q); assay type: in vivo, false cleavers (Galium spurium); conditions: AAH 178 g/ha
In short: as §3

persian speedwell [11] = test: Test Example 4: herbicidal effect by soil treatment (Table 19, symbol R); assay type: in vivo, Persian speedwell (Veronica persica); conditions: AAH 178 g/ha
In short: as §3

southern crabgrass [12] = test: Test Example 5: herbicidal effect by foliage application, plastic box (Table 20, symbol F); assay type: in vivo, southern crabgrass (Digitaria ciliaris); conditions: foliage application, 178 g/ha, 3 weeks after application
In short: (§4)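 Plants were sown into sterilized diluvial soil under about 1.5 cm cover and kept in a greenhouse at 25° C. to 30° C. Fourteen days on, foliage received an even spray of the diluted emulsion. Herbicidal or crop effect was judged three weeks afterwards.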

green foxtail [13] = test: Test Example 5: herbicidal effect by foliage application, plastic box (Table 20, symbol G); assay type: in vivo, green foxtail (Setaria viridis); conditions: foliage application, 178 g/ha, 3 weeks after application
In short: as §4

barnyard grass [14] = test: Test Example 5: herbicidal effect by foliage application, plastic box (Table 20, symbol H); assay type: in vivo, barnyard grass (Echinochloa crus-galli); conditions: foliage application, 178 g/ha, 3 weeks after application
In short: as §4

wild oat [15] = test: Test Example 5: herbicidal effect by foliage application, plastic box (Table 20, symbol I); assay type: in vivo, wild oat (Avena fatua); conditions: foliage application, 178 g/ha, 3 weeks after application
In short: as §4

blackgrass [16] = test: Test Example 5: herbicidal effect by foliage application, plastic box (Table 20, symbol J); assay type: in vivo, blackgrass (Alopecurus myosuroides); conditions: foliage application, 178 g/ha, 3 weeks after application
In short: as §4

Italian ryegrass [17] = test: Test Example 5: herbicidal effect by foliage application, plastic box (Table 20, symbol K); assay type: in vivo, Italian ryegrass (Lolium multiflorum); conditions: foliage application, 178 g/ha, 3 weeks after application
In short: as §4

windgrass [18] = test: Test Example 5: herbicidal effect by foliage application, plastic box (Table 20, symbol L); assay type: in vivo, windgrass (Apera spica-venti); conditions: foliage application, 178 g/ha, 3 weeks after application
In short: as §4

velvetleaf [19] = test: Test Example 5: herbicidal effect by foliage application, plastic box (Table 20, symbol M); assay type: in vivo, velvetleaf (Abutilon theophrasti); conditions: foliage application, 178 g/ha, 3 weeks after application
In short: as §4

lambsquarters [20] = test: Test Example 5: herbicidal effect by foliage application, plastic box (Table 20, symbol O); assay type: in vivo, lambsquarters (Chenopodium album); conditions: foliage application, 178 g/ha, 3 weeks after application
In short: as §4

persian speedwell [21] = test: Test Example 5: herbicidal effect by foliage application, plastic box (Table 20, symbol R); assay type: in vivo, Persian speedwell (Veronica persica); conditions: foliage application, 178 g/ha, 3 weeks after application
In short: as §4

COCCOCOc1c(C)nn(C)c(=O)c1-c1c(-c2ccc(OC(F)F)cc2)sc2ccccc12 [1-202]
herbicidal effect rating, A: late watergrass (late watergrass): 2 (Herbicidal rate of 20% or more and less than 40%) | herbicidal effect rating, B: Japanese bulrush (Japanese bulrush): 3 (Herbicidal rate of 40% or more and less than 70%) | herbicidal effect rating, C: oval-leafed pondweed (oval-leafed pondweed): 0 (Herbicidal rate of 5% or less (almost no effect)) | herbicidal effect on H (barnyard grass), rating 0-5 (barnyard grass [1]): 5 (Herbicidal rate of 90% or more (almost completely withered)) | herbicidal effect on D (Chinese sprangletop), rating 0-5 (Chinese sprangletop): 3 (Herbicidal rate of 40% or more and less than 70%) | herbicidal effect on E (rice flat sedge), rating 0-5 (rice flat sedge): 5 (Herbicidal rate of 90% or more (almost completely withered)) | F: southern crabgrass, herbicidal effect rating (southern crabgrass [2]): 0 (Herbicidal rate of 5% or less (almost no effect)) | G: green foxtail, herbicidal effect rating (green foxtail [3]): 4 (Herbicidal rate of 70% or more and less than 90%) | H: barnyard grass, herbicidal effect rating (barnyard grass [4]): 3 (Herbicidal rate of 40% or more and less than 70%) | I: wild oat, herbicidal effect rating (wild oat [5]): 0 (Herbicidal rate of 5% or less (almost no effect)) | J: blackgrass, herbicidal effect rating (blackgrass [6]): 0 (Herbicidal rate of 5% or less (almost no effect)) | K: Italian ryegrass, herbicidal effect rating (Italian ryegrass [7]): 4 (Herbicidal rate of 70% or more and less than 90%) | L: windgrass, herbicidal effect rating (windgrass [8]): 0 (Herbicidal rate of 5% or less (almost no effect)) | M: velvetleaf, herbicidal effect rating (velvetleaf [9]): 2 (Herbicidal rate of 20% or more and less than 40%) | N: redroot pigweed, herbicidal effect rating (redroot pigweed): 5 (Herbicidal rate of 90% or more (almost completely withered)) | O: lambsquarters, herbicidal effect rating (lambsquarters [10]): 4 (Herbicidal rate of 70% or more and less than 90%) | P: chickweed, herbicidal effect rating (chickweed): 3 (Herbicidal rate of 40% or more and less than 70%) | Q: false cleavers, herbicidal effect rating (false cleavers): 3 (Herbicidal rate of 40% or more and less than 70%) | R: persian speedwell, herbicidal effect rating (persian speedwell [11]): 4 (Herbicidal rate of 70% or more and less than 90%) | effect on southern crabgrass (F) (southern crabgrass [12]): 1 (Herbicidal rate of 5% or more and less than 20%) | effect on green foxtail (G) (green foxtail [13]): 5 (Herbicidal rate of 90% or more (almost completely withered)) | effect on barnyard grass (H) (barnyard grass [14]): 4 (Herbicidal rate of 70% or more and less than 90%) | effect on wild oat (I) (wild oat [15]): 0 (Herbicidal rate of 5% or less (almost no effect)) | effect on blackgrass (J) (blackgrass [16]): 3 (Herbicidal rate of 40% or more and less than 70%) | effect on Italian ryegrass (K) (Italian ryegrass [17]): 5 (Herbicidal rate of 90% or more (almost completely withered)) | effect on windgrass (L) (windgrass [18]): 0 (Herbicidal rate of 5% or less (almost no effect)) | effect on velvetleaf (M) (velvetleaf [19]): 5 (Herbicidal rate of 90% or more (almost completely withered)) | effect on lambsquarters (O) (lambsquarters [20]): 5 (Herbicidal rate of 90% or more (almost completely withered)) | effect on persian speedwell (R) (persian speedwell [21]): 5 (Herbicidal rate of 90% or more (almost completely withered))
